A short description of assay [1]: inhibitors of firefly luciferase expression or activity, dose response, H4 neuroglioma cells, luminescence (AID 1990). It is filed as functional, cell-based.
The nature of assay [2]: Luminescence Cell-Based Dose Response HTS to Identify Inhibitors of 5'UTR Stem-Loop Driven Prion Protein mRNA Translation in H4 Neuroglioblastoma Cells. [Related pubchem assays: 1827 (Project Summary), 1813 (Primary HTS)]. The class given is functional.
Assay [3] in a line: inhibitors of SNCA 5'UTR-driven reporter translation, confirmation, H4 neuroglioma cells, luminescence (AID 1988). The class given is functional, cell-based.
Another assay relates to INS1. The experiment in a line: beta cell apoptosis inhibitors, cytokine rescue, dose response, luminescence, retest (AID 449756).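 Note: cell death triggered by IL-1 beta plus TNF-alpha plus IFN-gamma mixture; protective hits raise ATP signal compared with cytokine alone wells.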 The following applies: Rattus norvegicus. The class given is functional, cell-based.
Assay [4] in a line: Luminescence Cell-Based Dose Retest to Confirm Inhibitors of Cancer Stem Cells. [Related pubchem assays (depositor defined):AID2717, AID2721]. It is filed as functional. The following applies: Homo sapiens.
Another assay concerns the target T1, Protein skinhead-1 (Caenorhabditis elegans, UniProt P34707).
T1 sequence (P34707 whole entry): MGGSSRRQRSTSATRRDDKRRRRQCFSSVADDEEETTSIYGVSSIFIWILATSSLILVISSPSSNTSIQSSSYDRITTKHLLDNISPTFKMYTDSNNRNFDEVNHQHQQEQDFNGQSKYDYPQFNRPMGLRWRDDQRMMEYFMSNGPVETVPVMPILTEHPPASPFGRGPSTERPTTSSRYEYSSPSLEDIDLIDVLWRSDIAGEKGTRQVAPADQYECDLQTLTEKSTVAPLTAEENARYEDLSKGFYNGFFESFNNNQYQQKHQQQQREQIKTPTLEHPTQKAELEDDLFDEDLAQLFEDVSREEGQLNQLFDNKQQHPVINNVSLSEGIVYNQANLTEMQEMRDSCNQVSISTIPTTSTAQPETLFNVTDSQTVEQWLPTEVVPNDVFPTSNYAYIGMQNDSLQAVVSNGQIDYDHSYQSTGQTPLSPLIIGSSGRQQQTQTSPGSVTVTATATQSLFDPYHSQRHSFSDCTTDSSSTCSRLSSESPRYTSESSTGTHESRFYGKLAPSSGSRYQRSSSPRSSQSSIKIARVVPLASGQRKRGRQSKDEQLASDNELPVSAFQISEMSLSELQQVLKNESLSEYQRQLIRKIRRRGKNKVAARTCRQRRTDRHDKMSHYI
It is filed as functional.

Assay [5] is described as follows: HEp-2 cell cytotoxicity, dose response, cytotoxicity control for RSV inhibitor project, HTS (AID 2410). The class given is functional. The following applies: human respiratory syncytial virus.
Assay [6] is described as follows: inhibitors of intracellular T. cruzi replication, confirmation, NIH3T3 host cells, beta-gal luminescence (AID 2044).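 Note: intracellular parasites grown in NIH/3T3 mouse fibroblasts as host cells; luminescent beta-galactosidase reporter signal from transgenic T. cruzi replicating inside host cells; inhibitors lower the luminescence signal.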 It is filed as functional, cell-based.
Assay [7] in a line: cytotoxicity toward NIH3T3 fibroblasts, dose response, counter-screen, cell-based, ATP luminescence, mouse fibroblasts (AID 2010).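 Note: cells exposed to compound for about 90 hours before reading.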 It is filed as functional.
Assay [8] has as its target T2, Replicative DNA helicase DnaB (Mycobacterium tuberculosis, UniProt P9WMR3).
T2 sequence (P9WMR3 whole entry): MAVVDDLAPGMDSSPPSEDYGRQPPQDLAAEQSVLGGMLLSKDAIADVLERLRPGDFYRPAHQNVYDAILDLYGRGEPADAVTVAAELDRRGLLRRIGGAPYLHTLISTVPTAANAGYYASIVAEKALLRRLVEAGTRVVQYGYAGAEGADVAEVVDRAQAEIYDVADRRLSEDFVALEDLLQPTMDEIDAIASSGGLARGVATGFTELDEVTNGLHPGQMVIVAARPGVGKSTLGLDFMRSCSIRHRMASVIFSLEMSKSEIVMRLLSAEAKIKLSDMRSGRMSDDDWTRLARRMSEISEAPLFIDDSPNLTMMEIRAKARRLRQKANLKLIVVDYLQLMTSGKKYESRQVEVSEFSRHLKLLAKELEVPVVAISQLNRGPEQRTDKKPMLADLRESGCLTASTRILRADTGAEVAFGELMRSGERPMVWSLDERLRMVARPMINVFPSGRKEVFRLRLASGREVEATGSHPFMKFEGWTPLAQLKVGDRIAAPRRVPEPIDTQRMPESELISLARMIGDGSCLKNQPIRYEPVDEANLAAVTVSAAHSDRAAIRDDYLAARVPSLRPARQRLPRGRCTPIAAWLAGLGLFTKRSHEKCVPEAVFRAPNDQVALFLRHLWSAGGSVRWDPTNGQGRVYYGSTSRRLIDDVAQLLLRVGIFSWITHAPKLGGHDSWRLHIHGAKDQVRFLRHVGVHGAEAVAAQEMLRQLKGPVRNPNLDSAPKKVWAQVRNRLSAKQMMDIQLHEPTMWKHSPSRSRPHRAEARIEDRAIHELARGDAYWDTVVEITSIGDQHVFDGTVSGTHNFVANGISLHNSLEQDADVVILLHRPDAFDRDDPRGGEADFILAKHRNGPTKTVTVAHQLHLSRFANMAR
Briefly: DnaB intein splicing inhibitors, dose response, biochemical, cell-free fluorescence (AID 449749). It is filed as functional.

In the next assay the target is T3, Protein RecA (Mycobacterium tuberculosis, UniProt P9WHJ3).
T3 sequence (P9WHJ3 whole entry): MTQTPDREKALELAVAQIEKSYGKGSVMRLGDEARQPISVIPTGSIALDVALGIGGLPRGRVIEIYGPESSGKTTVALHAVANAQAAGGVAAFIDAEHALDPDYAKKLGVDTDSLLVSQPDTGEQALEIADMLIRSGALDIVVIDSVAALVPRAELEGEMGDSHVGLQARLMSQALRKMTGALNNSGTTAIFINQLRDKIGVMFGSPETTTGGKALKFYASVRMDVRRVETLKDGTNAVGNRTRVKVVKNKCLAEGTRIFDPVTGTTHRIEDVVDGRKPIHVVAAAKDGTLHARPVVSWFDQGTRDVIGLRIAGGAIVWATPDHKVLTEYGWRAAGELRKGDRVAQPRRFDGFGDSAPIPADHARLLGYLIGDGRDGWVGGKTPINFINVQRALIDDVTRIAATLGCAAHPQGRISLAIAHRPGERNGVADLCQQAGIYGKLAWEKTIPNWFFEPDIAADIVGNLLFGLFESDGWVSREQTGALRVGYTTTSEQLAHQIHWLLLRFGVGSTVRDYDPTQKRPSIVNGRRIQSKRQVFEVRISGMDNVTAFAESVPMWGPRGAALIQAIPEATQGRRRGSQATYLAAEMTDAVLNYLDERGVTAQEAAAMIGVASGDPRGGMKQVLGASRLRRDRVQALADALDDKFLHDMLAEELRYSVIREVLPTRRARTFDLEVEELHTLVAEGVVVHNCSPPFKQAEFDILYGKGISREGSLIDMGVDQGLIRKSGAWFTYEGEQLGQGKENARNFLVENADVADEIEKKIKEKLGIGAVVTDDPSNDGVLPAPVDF
The experiment in a line: Fluorescence Cell-Free Homogeneous Dose Retest to Identify Inhibitors of RecA-Intein Splicing Activity. [Related pubchem assays (depositor defined):AID2097, AID2223, AID489010, AID492950]. The class given is functional.

The test system of assay [9] is Streptococcus sp. 'group A'. The experiment in a line: growth inhibition of control SK(-) GAS strain, dose response, counter-screen for streptokinase expression inhibitor project, luminescence, kanamycin, BacTiterGlo, confirmation (AID 1900). The class given is functional, organism-based.
The target in the next assay is T4, Streptokinase A (Streptococcus pyogenes serotype M1, UniProt P10520).
T4 sequence (P10520 whole entry): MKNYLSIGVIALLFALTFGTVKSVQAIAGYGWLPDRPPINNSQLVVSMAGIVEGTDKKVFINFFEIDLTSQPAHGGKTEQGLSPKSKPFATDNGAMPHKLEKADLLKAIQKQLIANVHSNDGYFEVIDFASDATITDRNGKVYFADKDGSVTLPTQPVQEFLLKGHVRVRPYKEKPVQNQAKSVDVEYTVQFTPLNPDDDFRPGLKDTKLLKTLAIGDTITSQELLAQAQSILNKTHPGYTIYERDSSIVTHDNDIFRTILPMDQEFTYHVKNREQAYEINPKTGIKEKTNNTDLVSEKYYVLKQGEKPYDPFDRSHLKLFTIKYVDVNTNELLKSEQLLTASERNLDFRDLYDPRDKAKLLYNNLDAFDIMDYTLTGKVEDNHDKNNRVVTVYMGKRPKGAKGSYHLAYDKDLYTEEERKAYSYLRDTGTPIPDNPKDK
The experiment in a line: S. pyogenes streptokinase expression inhibitors, potency, dose response, plasminogen activation absorbance, OD405 (AID 1914).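 Note: secreted streptokinase activity via plasminogen activation per viability signal from cell pellet.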 It is filed as functional, Streptococcus pyogenes M1 GAS.

The subject of another assay is Streptococcus. The experiment in a line: Group A Streptococcus viability loss, dose response, counter-screen for streptokinase expression inhibitor project, luminescence, BacTiterGlo (AID 1915).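 Note: potency for reduction of bacterial viability or growth.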 The class given is functional, organism-based.

Molecules are shown by their SMILES. Activity calls are given as the source filed them. Bounds are passed on as bounds.

`O=C(NNC(=O)c1ccccc1OCc1ccccc1)c1ccccc1O`: the results for the concentration giving a half-maximal response (EC50) in [1], in assay [2] and in [3] were 3.92 µM (active), 11.6 µM (active) and 5.27 µM (active), respectively. Moreover, the concentration at half-maximal activity (AC50) in the assay with INS1 is 2.76 µM (active). In the case of `O=Nc1c(O)n(Cc2ccc(Cl)cc2Cl)c2ccccc12`, in [4], the AC50 was 6.86 µM (active).

`CCc1ccc2c(c1)c1nnc(NN)nc1n2C`: the EC50 in [1], in assay [2] and in assay [3] was > 120 µM (not active) each time. Consider `COc1ccc(CC(=O)NCc2ccc3c(c2)cc(C)n3C)cc1`, for which, on Protein skinhead-1, the IC50 is > 100 µM (inactive).

Regarding `CC(=O)n1cc(-c2ccncc2)c2ccccc21`, the cytotoxic concentration (CC50) in assay [5] was 31.5 µM (active).

Take `NC(=O)CC(NC(=O)Cc1cccc2ccccc12)c1ccc(NC2CC3CCC2C3)c([N+](=O)[O-])c1` (stereo not drawn): in assay [5], the half-maximal cytotoxic concentration (CC50) was > 50 µM (active). With `Fc1ccc(-c2nnc(Cc3ccc(Cl)cc3)o2)cc1`, on Protein skinhead-1, the half-maximal inhibitory concentration (IC50) is 20.2 µM (active). `Oc1nc(N/N=C/c2ccccc2Br)nnc1-c1ccccc1`: the half-maximal cytotoxic concentration (CC50) in [5] was 30.9 µM (active). With `CCC(C)(C)C(=O)Nc1ncc(S(=O)(=O)c2ccc([N+](=O)[O-])cc2)s1`, the IC50 at Protein skinhead-1 was > 100 µM (inactive). As for `COc1cccc(/C=C/c2nc(C#N)c(NCC(C)C)o2)c1`, the AC50 in assay [4] was 2.19 µM (active). In the case of `Clc1ccc(-c2nnc(SCc3ccon3)o2)c(Cl)c1`, the IC50 on Protein skinhead-1 is 60.2 µM (inactive).

Take `CCc1ccccc1N=C(S)N=C(N)Nc1nc(C)c2cc(C)ccc2n1`: the EC50 in [1] is > 120 µM (not active); in [2] it was > 120 µM (not active); in [3] it was 29.4 µM (active).

As to `O=C(Nc1ccc(C(O)(C(F)(F)F)C(F)(F)F)cc1)c1ccc(Cl)c([N+](=O)[O-])c1`, the concentration at half-maximal activity (AC50) in assay [4] was 5.95 µM (active). For the compound `CC(C)(C)c1ccc(NC(=O)c2c(F)cccc2Cl)cc1`, the CC50 in assay [5] is 43.5 µM (active).

For `O=C(Nc1ccc(Cl)c(Cl)c1)c1ccc2c(c1)OCO2`, the half-maximal cytotoxic concentration (CC50) in [5] was > 50 µM (active). Take `CC(C)(C)c1ccc(/C=C(\c2nc3ccccc3[nH]2)S(=O)(=O)c2ccccc2)cc1`: the EC50 in [6] was 0.995 µM (active); in [7], > 60 µM (not active); at Protein RecA, 2.77 µM (active). Moreover, the AC50 in assay [4] is 1.36 µM (active); in [8] it was 2.19 µM (active); in the assay on INS1 it was 6.71 µM (active). With `c1ccc(-c2ccc(-n3ccnc3)cc2)cc1`, the concentration giving a half-maximal response (EC50) in assay [6] and in assay [7] was > 30 µM (not active) in each case. Besides, the IC50 on Protein skinhead-1 is 6.11 µM (active). `O=C1Nc2ccccc2/C1=C\c1cccn1-c1ccc(OC(F)(F)F)cc1`: the EC50 was 15.7 µM (active) in assay [1], > 120 µM (not active) in [2] and 15.4 µM (active) in assay [3]. On to `O=C(C[C@H]1C[C@H](C(=O)N2CCOCC2)[C@@]2(CCC3CCCC3)c3[nH]c4cc(-c5ccco5)ccc4c3CCN2C1=O)NCc1ccco1`, for which, at Protein skinhead-1, the IC50 was > 100 µM (inactive). Same read-out and setting: then `Clc1cc(Cl)c2nc(N3CCCC3)sc2c1`, with 27.1 µM (active). On to `CCOC(=O)c1c(C)n(C)c2ccc(OCC(O)Cn3nc(C)c(Br)c3C)cc12` (stereo not drawn), for which, in assay [5], the CC50 was 15.6 µM (active). Further, the EC50 in assay [9] was 15.6 µM (active); on Streptokinase A, > 150 µM (not active); in the assay with Streptococcus it was 38.1 µM (active). For `Cc1nn(-c2ccccc2)c(C)c1/C=N/n1c(S)nnc1-c1ccc(C(C)(C)C)cc1`, the EC50 was 3.13 µM (active) in assay [9], > 150 µM (not active) at Streptokinase A and 5.35 µM (active) in the assay with Streptococcus. In assay [4], the AC50 was 5.78 µM (active). In the case of `COc1ccccc1-c1cc(C(=O)N/N=C/c2ccc(C)s2)c2ccccc2n1`, the CC50 in [5] is 32.2 µM (active).

With `C=CCn1c(-c2ccccc2)ccc(C#N)c1=O`, the half-inhibitory concentration (IC50) at Protein skinhead-1 was 15.8 µM (active).

As to `COc1ccc(O)c(/C=N/Nc2nc(C)cc(-c3ccccc3)n2)c1`, the CC50 in [5] is 18.1 µM (active). Regarding `O=C(NC1CCCC1)C1C(c2ccc(C(F)(F)F)cc2)=Nc2ccccc2N1C(=O)c1ccco1` (stereo not drawn), the IC50 on Protein skinhead-1 was > 100 µM (inactive).

In the case of `CCCn1c2ccccc2c2nnc(SCC(=O)Nc3c(C)n(C)n(-c4ccccc4)c3=O)nc21`, the EC50 in assay [1], in assay [2] and in assay [3] was > 120 µM (not active) each time. Consider `CCN(CC)C(=O)c1sc(NC(=O)Cc2ccc(OC)cc2)c(C#N)c1C`, for which, on Protein skinhead-1, the IC50 is > 100 µM (inactive). Still for that read-out and setting: to `Clc1ccc(-c2nc(CSc3ccccn3)cs2)cc1` belongs 59.1 µM (inactive).

The values are drawn from ChEMBL document CHEMBL1201862, “PubChem BioAssay data set” (2004).
